In patent US9981972B2, “N-hydroxy bicyclic hydantoin carbamates as tools for identification of serine hydrolase targets” (ABIDE THERAPEUTICS, INC., priority 2014, dated 2018):
“Also recorded” adds a separate entry of the source.

How the values were obtained:
[1] = tested on: FP-sensitive SHs in the mouse brain membrane proteome; test: Gel-based competitive ABPP in vitro, mouse brain membrane proteome, anti-targets; assay type: biochemical
Outline: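 Mouse brain membrane proteome (1 mg/mL in DPBS) was treated with compound (0.1-100 μM) for 30 min at 37 °C, then labeled with FP-Rh (2 μM final, 30 min, 25 °C). Bands were resolved by SDS-PAGE and scanned in-gel, with inhibition taken from band optical density versus DMSO. Targets counted as active or anti-targets at ≥50% inhibition.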

PPT1 = biological target: T1, PPT1 (Homo sapiens, UniProt P50897); test: ABPP-SILAC, PC3 cells treated in situ, Compound 39 probe; assay type: cell-based; design: endogenous in cells; host or cells: PC3; conditions: 4 h in situ
T1 sequence (P50897 28-306): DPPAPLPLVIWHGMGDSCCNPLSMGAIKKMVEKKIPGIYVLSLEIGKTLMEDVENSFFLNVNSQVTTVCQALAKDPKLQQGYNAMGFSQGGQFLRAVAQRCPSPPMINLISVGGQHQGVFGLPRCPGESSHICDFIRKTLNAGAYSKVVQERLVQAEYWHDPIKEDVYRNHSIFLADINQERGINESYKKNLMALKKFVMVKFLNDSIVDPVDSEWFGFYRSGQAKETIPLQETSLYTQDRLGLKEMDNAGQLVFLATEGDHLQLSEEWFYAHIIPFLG
Procedure: In situ inhibitor treatments of human cell lines were performed as described previously (Hsu et al., J Med Chem 56, 8270-8279, 2012). Briefly, PC3 or transfected HEK293T cells were grown to confluency in serum-containing media (RPMI or DMEM, respectively). The culture media was then removed and replaced with fresh media containing DMSO or inhibitor at the desired concentration and incubated for 4 hours in a tissue culture incubator (37° C., 5% CO2). Cells were then washed with PBS, harvested, washed with PBS once more, and lysed with a probe sonicator.
Isotopically heavy- and light-labeled PC3 cells were treated with Compound 37 (1 μM) or DMSO for 4 h, respectively, lysed, and then treated Compound 39 (5 μM, 1 h). […] Accordingly, PPT1 was not detected in our previous ABPP-SILAC studies with FP-biotin (see FIG. 9). […]
To evaluate the broader selectivity of Compound 26 and Compound 34 across the SH class, heavy and light isotopically-labeled PC3 cells were treated with inhibitor [Compound 34 (1 μM); or Compound 26 (1 or 0.1 μM); 4 h) and DMSO, respectively, followed by ABPP-SILAC analysis with either the FP-biotin probe or the Compound 39 probe. […] Conversely, Compound 34 inhibited >90% of ABHD4 activity, as measured with either the FP-biotin probe or the Compound 39 probe, and cross-reacted with four additional targets—ABHD6, PAFAH2, PLA2G7, and PLA2G15.

SMILES: O=C(ON1C(=O)C2CN(C(=O)N3CCOCC3)CCN2C1=O)N1CCC(CCc2ccc(Cl)cc2)CC1 (stereo not drawn) [Compound 1, 7-(morpholine-4-carbonyl)-1,3-dioxohexahydroimidazo[1,5-a]pyrazin-2(3H)-yl 4-(4-chloro-phenethyl)piperidine-1-carboxylate]
- Anti-target(s) 1 μM ([1]; SHs with at least 50% inhibition at 1 μM compound): ABHD6
- Anti-target(s) 10 μM ([1]; SHs with at least 50% inhibition at 10 μM compound): FAAH,; also recorded: ABHD6
- Anti-target(s) 100 μM ([1]; SHs with at least 50% inhibition at 100 μM compound): FAAH,; also recorded: ABHD12,; also recorded: MAGL,; also recorded: ABHD6

SMILES: COc1ccc(N2CCN(C(=O)ON3C(=O)C4CN(CC5CCN(Cc6ccccc6)CC5)CCN4C3=O)CC2)cc1 (stereo not drawn) [Compound 26, 7-((1-benzylpiperidin-4-yl)methyl)-1,3-dioxohexahydroimidazo[1,5-a]pyrazin-2(3H)-yl 4-(4-methoxyphenyl)piperazine-1-carboxylate]
- inhibition of PPT1 in PC3 cells (PPT1; 1 or 0.1 μM, Compound 39 probe): ~90%

SMILES: COc1ccc(N2CCN(C(=O)ON3C(=O)C4CN(Cc5ccc(Oc6ccccc6)cc5)CCN4C3=O)CC2)cc1 (stereo not drawn) [Compound 37, 1,3-dioxo-7-(4-phenoxybenzyl)hexahydroimidazo[1,5-a]pyrazin-2(3H)-yl 4-(4-methoxyphenyl)piperazine-1-carboxylate]
- inhibition at 1 µM (PPT1; PC-3, 1 μM, Compound 39 probe (5 μM, 1 h)): > 90%

SMILES: O=C(ON1C(=O)C2CN(Cc3ccc(Oc4ccccc4)cc3)CCN2C1=O)N1CCC(c2ccccc2)CC1 (stereo not drawn) [Compound 38, 1,3-dioxo-7-(4-phenoxybenzyl)hexahydroimidazo[1,5-a]pyrazin-2(3H)-yl 4-phenylpiperidine-1-carboxylate]
- concentration-dependent profiling, ABHD3 and ABHD4 ([1]; mouse brain membrane SHs, FIG. 7B): promising lead inhibitor for ABHD3 and ABHD4
